Results from publication PMC8312610, “F4, a collagen XIX-derived peptide, inhibits tumor angiogenesis through αvβ3 and α5β1 integrin interaction” (Cell Adhesion & Migration, 2021).
Entries after “also recorded” stand apart in the source; their conditions may differ. Positions of bridges follow the written chain, without caps; N, C: chain ends. No end group written: not given here.

How the values were obtained:
[1] = system: HUVEC (Human Umbilical Vein Endothelial Cells); assay: HUVEC proliferation (crystal violet); assay type: cell-based; conditions: 40 μM, 48 h, 5,000 HUVEC per well in ECGM, 560 nm, means ± SD (n = 16), N = 3
Experimental: Figure 1. […] 5,000 HUVEC were seeded in a 96 well plate and incubated with or without 40 μM NC1(XIX) or F4 for 48 hours. After washing, cells were fixed with glutaraldehyde and stained with crystal violet. Dye was eluted with 10% acetic acid and absorbance was read at 560 nm. The values are the means ± SD (n = 16). The experiment was repeated three times (N = 3) and the results presented in the figure correspond to the more representative one
Human Umbilical Vein Endothelial Cells (HUVEC) (Ref C-12253) were purchased from Promocell. They were grown in Endothelial Cell Growth Medium (ECGM) (Promocell, Ref C-22110: Basal medium supplemented with 0.02 mL/mL Fetal Calf Serum, 0.004 mL/mL Endothelial Cell Growth Supplement, 0.1 ng/mL Epidermal Growth Factor (recombinant human), 1 ng/mL Basic Fibroblast Growth Factor (recombinant human), 90 μg/mL Heparin, 1 μg/mL Hydrocortisone) at +37°C in a humid atmosphere containing 5% CO2. PromoCell Detach Kit was used for the detachment of HUVEC according to the manufacturer’s protocols (Promocell, ref C-41200).
For cell proliferation measurement, 5,000 HUVEC were seeded in 96-well plates and cultivated in ECGM with or without 40 μM NC1(XIX) or F4 at +37°C in a humid atmosphere containing 5% CO2. […] Dye was eluted with 10% (v/v) acetic acid and absorbance was read at 560 nm.

[2] = system: Sprague Dawley rat aortic rings; assay: Ex vivo rat aortic ring assay (endothelial cell outgrowth); assay type: cell-based
Experimental: Figure 3. NC1(XIX) and F4 inhibit endothelial cell ex vivo migration. Rat aortic rings were embedded in Matrigel in 24 well-plate and then incubated with or without 40 μM NC1(XIX) or F4 for 14 days. Micro-vessel outgrowth was observed under an inverted microscope after 14 days and photographed (a). Cell outgrowth from the tissue explant was measured using a home-made macro based on ImageJ analysis software. The results are presented as mean ± SD (n = 5 replicates) (b). The experiment was repeated twice (N = 2)
The ex vivo rat aortic ring assay was adapted from Baker et al.. Thoracic aorta was dissected from Sprague Dawley rat and stored in Opti-MEM (ThermoFisher, ref 31985062) supplemented with 1% penicillin/streptomycin in a Petri dish. Aorta was then cut into 0.5 mm rings that were incubated in Opti-MEM overnight at +37°C in a Petri dish. Matrigel (7 mg/mL) was loaded in 24-well plate and allowed to polymerize at +37°C for 30 min. The rings were carefully transferred from the Petri dish onto the Matrigel coated wells and were completely embedded by addition of Matrigel. The plate was incubated at +37°C for 30 min. Opti-MEM supplemented with 30 ng/mL VEGF with or without 40 μM NC1(XIX) or F4 was added. Plate was incubated at +37°C in a humid atmosphere containing 5% CO2 for 14 days. The supplemented culture medium was changed every 3 days. Rings were imaged under an inverted light microscope at 14 days. Quantitative evaluation of the angiogenic sprouting was determined by measuring the number of endothelial cell outgrowth from the primary tissue explant using a homemade macro based on ImageJ analysis software. The first step consisted in the semi-automatic selection of aortic ring shape at day 0 by manual threshold allowing the design of a top hat filter to obtain a relevant mask of this structure. The mask was then substracted from day 14 image to keep only outgrowing cells. The second step consisted in a manual threshold and the use of ‘Analyze Particules’ tool involving size criteria. The total cell number of cell outgrowing from the ring was determined.

αvβ3 integrin = assay: Solid phase assay, direct binding to αvβ3; parameters: species or system human; conditions: solid phase assays
Excerpt: (§1) Figure 5. F4 directly binds to αvβ3 and α5β1 integrins. Direct interaction between αvβ3 or α5β1 integrin and F4 was studied using solid phase assays as described in the material and method section. The F4 peptide was biotinylated to allow its detection using the streptavidin-peroxidase complex. Different conditions were used. (a-b) The amounts of coated αvβ3 (a) or α5β1 integrin (b) were increased while biotinylated F4 peptide was kept constant. (c-d) The concentration of biotinylated F4 peptide was increased while coated amounts of αvβ3 (c) or α5β1 (d) integrins were kept constant. (e-f) Competitive assays were performed using increasing concentrations of F4 peptide while biotinylated-F4 peptide and αvβ3 (e) or α5β1 (f) integrins were kept constant. […]
(§2) Wells of a 96-well plate were coated with α5β1 (ref. 3230-A5-050, R&D systems) and/or αvβ3 integrin (ref. 3050-AV-050, R&D systems) at different concentrations ranging from 26 × 10^−7 mol/L to 0.1 × 10^−7 mol/L (100 μL per well in PBS). […] The intensity of the yellow coloration was measured at 450 nm with an LB940 spectrophotometer (Berthold Technologies).
(§3) The optimum integrin amount for the coating was determined using the above protocol and the optimum ligand concentration was sought using different dilutions of the biotinylated-F4 peptide ranging from 20.8 × 10^−4 to 0.16 × 10^−4 mol/L.

α5β1 integrin = assay: Solid phase assay, direct binding to α5β1; parameters: species or system human; conditions: solid phase assays
Excerpt: as §1, §2, §3

tumor cell = system: tumor cell; parameters: method as in PMID 26621838; conditions: in vitro; ref [36]; cited from earlier work

CNPEDCLYPVSHAHQR (disulfide 1-6 (inferred)) [F4, collagen XIX-derived peptide, released by plasmin from type XIX collagen]
effect on HUVEC proliferation [1]: not significantly modified; also recorded: does not affect endothelial cell proliferation | cell outgrowth, F4 compared with NC1(XIX) ([2]; 40 μM, 14 days, Opti-MEM with 30 ng/mL VEGF): even stronger than NC1(XIX) effect | change of cell outgrowth from aortic ring vs control ([2]; 40 μM, 14 days, Opti-MEM with 30 ng/mL VEGF, Matrigel, mean ± SD (n = 5), N = 2, p < 0.01 NC1(XIX), p < 0.001 F4): −78% | anti-angiogenic effect on aortic endothelial sprouting, F4 compared with NC1(XIX) (discussion) ([2]; ex vivo): even greater than the whole NC1(XIX) domain | inhibition of endothelial sprouting ([2]; rat aortic ring assay (abstract)): endothelial sprouting in a rat aortic ring assay | direct binding to αvβ3 (conclusion) (αvβ3 integrin): binds to both αvβ3 and α5β1 integrins in a direct manner | direct binding to α5β1 (conclusion) (α5β1 integrin): binds to both αvβ3 and α5β1 integrins in a direct manner | tumor cell migration (tumor cell): inhibits in vitro tumor cell migration
